The numbers were not newly measured in patent US20210195917A1, “COMPOSITIONS AND RELATED METHODS FOR AGRICULTURE” (priority 2017, published 2021), which cites them from elsewhere.

The test system of one data set is bees. The conditions noted are these: in vivo.
The next data set concerns target bacterial strains. The conditions noted are these: against its target bacterial strains.
The subject of data set [1] is gram-negative and gram-positive bacteria as well as fungi.

Take botrycidin AJ1316: the antifungal activities result in the data set on fungi is reported as “antifungal activities”.

`COP(=S)(OC)Oc1ccc([N+](=O)[O-])c(C)c1` [fenitrothion]: the toxicity to bees result with bees is given as “toxic to bees”.

Consider nisin, for which the “concentration showing antimicrobial activity” value in the data set with target bacterial strains was “single-digit nanomolar”.

B1: NCR335: cationic NCR peptide of Medicago truncatula, SEQ ID NO: 65 (peptide, listed as Medicago truncatula)
chain: MQIGKNMVETPKLDYVIIFFFLYFFFRQMIILRLNTTFRPLNFKMLRFWGQNRNIMKHRGQKVHFSLILSDCKTNKDCPKLRRANVRCRKSYCVPI
With B1, the antimicrobial activities result in data set [1] was “effective”.
